Where “and” joins values, the source holds several entries; their conditions need not be identical. Equal entries are not always repeated. ± gives the expanded uncertainty stated by the source.

The conditions of series [1]: 101.33 kPa, Liquid; for speed of sound: Sing-around technique in a fixed-path interferometer.
Series [2] in a line: xn = mol fraction of the nth substance listed. Particulars: 101.33 kPa, Liquid, x2 = 0; for speed of sound: Sing-around technique in a fixed-path interferometer.

One may read the mass density as the mass of a sample divided by its volume. The viscosity is the internal friction of a fluid under shear. By speed of sound is commonly meant how fast a sound wave travels through the sample. As to `CCCCCCCCCC` [decane], in series [1] (293.15 K), the mass density stood at 729.89 ± 0.8 kg/m3, the viscosity was 0.911 ± 0.016 mPa·s and the speed of sound turned out to be 1254 ± 1 m/s. For the same compound, in series [1] (298.15 K), the mass density came out at 726.12 ± 0.8 kg/m3, the viscosity is 0.845 ± 0.015 mPa·s and the speed of sound came to 1235 ± 1 m/s. Moreover, in series [1] (303.15 K), the mass density was determined as 722.33 ± 0.81 kg/m3, the viscosity is 0.787 ± 0.014 mPa·s and the speed of sound is recorded as 1215 ± 1 m/s.
Consider `CCCCCCCCCC` [decane] + CCCC(C)O, for which, in series [2] (293.15 K), the speed of sound is recorded as 1254 ± 1 m/s, the mass density came out at 729.89 ± 0.8 kg/m3 and the viscosity amounted to 0.911 ± 0.016 mPa·s. Moreover, in series [2] (298.15 K), the speed of sound is 1235 ± 1 m/s, the mass density was found to be 726.12 ± 0.8 kg/m3 and the viscosity is reported as 0.845 ± 0.015 mPa·s. Further, in series [2] (303.15 K), the speed of sound worked out at 1215 ± 1 m/s, the mass density stood at 722.33 ± 0.81 kg/m3 and the viscosity came out at 0.787 ± 0.014 mPa·s.
Consider `CCCCCCCCCCCC` [dodecane], for which, in series [1] (293.15 K), the mass density was determined as 748.54 ± 0.77 kg/m3, the viscosity was found to be 1.454 ± 0.024 mPa·s and the speed of sound worked out at 1297 ± 1 m/s. In addition, in series [1] (298.15 K), the mass density is 744.9 ± 0.77 kg/m3, the viscosity is given as 1.327 ± 0.022 mPa·s and the speed of sound was 1278 ± 1 m/s. Further, in series [1] (303.15 K), the mass density worked out at 741.27 ± 0.78 kg/m3, the viscosity is given as 1.219 ± 0.02 mPa·s and the speed of sound stood at 1259 ± 1 m/s.
For the compound `CCCCCCCCCCCC` [dodecane] + CCCC(C)O, in series [2] (293.15 K), the speed of sound turned out to be 1297 ± 1 m/s, the mass density worked out at 748.54 ± 0.77 kg/m3 and the viscosity is given as 1.454 ± 0.024 mPa·s. Moreover, in series [2] (298.15 K), the speed of sound was determined as 1278 ± 1 m/s, the mass density is 744.9 ± 0.77 kg/m3 and the viscosity is reported as 1.327 ± 0.022 mPa·s. Besides, in series [2] (303.15 K), the speed of sound is listed as 1259 ± 1 m/s, the mass density is 741.27 ± 0.78 kg/m3 and the viscosity was found to be 1.219 ± 0.02 mPa·s.
Regarding `CCCCCCCC` [octane], in series [1] (293.15 K), the mass density is 702.57 ± 0.78 kg/m3, the viscosity stood at 0.538 ± 0.01 mPa·s and the speed of sound was 1193 ± 1 m/s. Further, in series [1] (298.15 K), the mass density is 698.54 ± 0.79 kg/m3, the viscosity stood at 0.506 ± 0.009 mPa·s and the speed of sound was 1173 ± 1 m/s. In series [1] (303.15 K), the mass density worked out at 694.49 ± 0.8 kg/m3, the viscosity is given as 0.478 ± 0.009 mPa·s and the speed of sound is on record as 1152 ± 1 m/s.
Regarding `CCCCCCCC` [octane] + CCCC(C)O, the speed of sound in series [2] (293.15 K) came out at 1193 ± 1 m/s; in series [2] (298.15 K), 1173 ± 1 m/s; in series [2] (303.15 K) it was 1152 ± 1 m/s. In addition, the mass density in series [2] (293.15 K) stood at 702.57 ± 0.78 kg/m3; in series [2] (298.15 K), 698.54 ± 0.79 kg/m3; in series [2] (303.15 K), 694.49 ± 0.8 kg/m3. In addition, the viscosity amounted to 0.538 ± 0.01 mPa·s in series [2] (293.15 K), 0.506 ± 0.009 mPa·s in series [2] (298.15 K) and 0.478 ± 0.009 mPa·s in series [2] (303.15 K).
On to `CCCC(C)O` (stereo not drawn) [pentan-2-ol], for which the mass density in series [1] (293.15 K) is 809.04 ± 0.99 kg/m3; in series [1] (298.15 K), 805.01 ± 0.99 kg/m3 and 805 ± 0.99 kg/m3; in series [1] (303.15 K), 800.9 ± 0.99 kg/m3. For the same compound, the viscosity in series [1] (293.15 K) turned out to be 4.001 ± 0.075 mPa·s; in series [1] (298.15 K), 3.273 ± 0.063 mPa·s; in series [1] (303.15 K), 2.708 ± 0.053 mPa·s. The speed of sound was 1250 ± 2 m/s in series [1] (293.15 K), 1232 ± 2 m/s in series [1] (298.15 K) and 1214 ± 2 m/s in series [1] (303.15 K).

The values above are taken from the NIST ThermoML archive (doi:10.1021/je034208m).
